Patent EP0451130A2, “Use of amiloride and other pyrazine derivatives for preventing or treating ocular neovascularization” (priority 1990, dated 1991)

Tests used:
human uPA = biological target: T1, human uPA (Homo sapiens, UniProt P00749); experiment: in vitro uPA chromogenic substrate assay (glutaryl-glycyl-arginyl-p-nitroanilide, absorbance 405nm); format: biochemical; details: for inhibition at 20 µM: read-out: % INHIBITION OF uPA ACTIVITY 20 mM INHIBITOR; for inhibition at 100 µM: read-out: % INHIBITION OF uPA ACTIVITY 100 mM INHIBITOR
T1 construct: purchased
Source text: The values for the relative inhibitions contained in Table III are obtained by the following procedure.
An in vitro assay employs a commercially available synthetic chromogenic substrate, glutaryl-glycyl-arginyl-p-nitroanilide, and a commercially available human uPA. The uPA catalyzes the hydrolysis of the bond between the arginyl and p-nitroanilide moieties. The p-nitroaniline released upon hydrolysis of the substrate absorbs light at a wavelength of 405nm. The enzymatic activity is quantitated as a function of the increase in the absorbance of the solution at 405nm as measured with a spectrophotometer.
In order to obtain the data, stock solutions of the amiloride-related pyrazine derivative compounds were included in the assays, and the release of p-nitroaniline as followed by the change in absorbance at 405nm of the reaction mixture was compared to a control reaction mixture in which no amiloride-related pyrazine derivative compound was present.

Corneal Vessels = experiment: rabbit corneal neovascularization model (PGE1 slow release pellet, amiloride agarose pellet implant); format: in vivo; details: result in words
Source text: A series of experiments have been conducted employing a rabbit model.

[1] = biological target: tissue-type plasminogen activator (tPA) (Homo sapiens, UniProt P00750); details: in vitro, result in words; cited from earlier work
plasmin = plasmin (Homo sapiens, UniProt P00747); details: in vitro, result in words; cited from earlier work
plasma kallikrein = plasma kallikrein (Homo sapiens, UniProt P03952); details: in vitro, result in words; cited from earlier work
thrombin = thrombin (Homo sapiens, UniProt P00734); details: in vitro, result in words; cited from earlier work
circulating cancer cells = details: continuously administered orally to rats, result in words; cited from earlier work

Chain of plasmin (P00747 97-580): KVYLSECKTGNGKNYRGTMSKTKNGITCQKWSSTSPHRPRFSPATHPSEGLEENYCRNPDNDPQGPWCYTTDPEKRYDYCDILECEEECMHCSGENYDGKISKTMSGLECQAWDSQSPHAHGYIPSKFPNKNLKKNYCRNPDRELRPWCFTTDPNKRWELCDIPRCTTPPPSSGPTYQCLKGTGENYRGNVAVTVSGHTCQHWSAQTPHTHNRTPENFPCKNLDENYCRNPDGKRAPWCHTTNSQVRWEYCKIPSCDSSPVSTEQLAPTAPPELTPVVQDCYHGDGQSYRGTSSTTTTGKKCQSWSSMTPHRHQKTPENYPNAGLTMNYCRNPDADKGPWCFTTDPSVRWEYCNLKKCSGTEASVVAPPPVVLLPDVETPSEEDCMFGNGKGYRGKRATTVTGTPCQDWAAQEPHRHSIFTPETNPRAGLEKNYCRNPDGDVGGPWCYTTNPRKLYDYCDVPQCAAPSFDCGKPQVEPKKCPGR
Chain of plasmin (P00747 581-810): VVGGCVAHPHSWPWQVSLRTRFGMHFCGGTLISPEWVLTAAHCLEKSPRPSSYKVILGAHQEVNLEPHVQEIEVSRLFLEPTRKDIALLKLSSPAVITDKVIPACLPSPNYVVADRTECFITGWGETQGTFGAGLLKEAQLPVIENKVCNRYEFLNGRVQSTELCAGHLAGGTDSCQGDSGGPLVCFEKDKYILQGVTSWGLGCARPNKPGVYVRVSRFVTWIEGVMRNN
Chain of plasma kallikrein (P03952 20-638, species assumed): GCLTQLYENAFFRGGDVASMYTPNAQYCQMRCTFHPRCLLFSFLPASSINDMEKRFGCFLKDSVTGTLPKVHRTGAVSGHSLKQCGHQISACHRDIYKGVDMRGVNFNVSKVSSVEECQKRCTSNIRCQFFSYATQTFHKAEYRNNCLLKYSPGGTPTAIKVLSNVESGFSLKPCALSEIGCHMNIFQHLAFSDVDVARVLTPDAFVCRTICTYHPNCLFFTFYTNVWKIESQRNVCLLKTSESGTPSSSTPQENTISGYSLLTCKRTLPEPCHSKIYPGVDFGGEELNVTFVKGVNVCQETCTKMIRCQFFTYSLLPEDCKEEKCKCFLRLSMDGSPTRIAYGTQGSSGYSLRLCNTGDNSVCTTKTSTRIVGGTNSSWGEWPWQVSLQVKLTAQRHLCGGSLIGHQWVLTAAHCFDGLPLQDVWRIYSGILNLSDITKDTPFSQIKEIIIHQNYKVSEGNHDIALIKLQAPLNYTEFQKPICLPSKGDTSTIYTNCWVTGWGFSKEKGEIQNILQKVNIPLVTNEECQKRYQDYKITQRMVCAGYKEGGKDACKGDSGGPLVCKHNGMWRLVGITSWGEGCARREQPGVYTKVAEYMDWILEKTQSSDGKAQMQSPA
Chain of tissue-type plasminogen activator (tPA) (P00750 36-562, species assumed): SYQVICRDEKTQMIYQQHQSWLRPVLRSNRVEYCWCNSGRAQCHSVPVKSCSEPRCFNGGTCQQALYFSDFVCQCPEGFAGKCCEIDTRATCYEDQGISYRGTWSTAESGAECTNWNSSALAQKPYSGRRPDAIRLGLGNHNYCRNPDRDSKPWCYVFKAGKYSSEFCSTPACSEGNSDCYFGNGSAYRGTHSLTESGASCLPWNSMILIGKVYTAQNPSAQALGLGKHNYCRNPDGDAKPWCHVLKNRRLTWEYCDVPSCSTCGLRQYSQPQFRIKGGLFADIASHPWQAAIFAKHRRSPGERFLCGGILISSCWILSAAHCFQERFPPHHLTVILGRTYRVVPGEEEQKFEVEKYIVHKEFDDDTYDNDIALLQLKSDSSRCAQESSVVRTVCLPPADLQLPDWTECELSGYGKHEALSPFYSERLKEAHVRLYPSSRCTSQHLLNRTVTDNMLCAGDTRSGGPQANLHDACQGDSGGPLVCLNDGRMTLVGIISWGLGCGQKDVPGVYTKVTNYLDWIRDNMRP

SMILES | inhibition at 20 µM (human uPA) | inhibition at 100 µM (human uPA) | other results
CN(CC(=O)N=C(N)N)c1nc(N)c(C(=O)N=C(N)N)nc1Cl [MGCMA, 3-amino-6-chloro-5-[N-methyl-N-(guanidinocarbonylmethylamino)]-N(diaminomethylene)pyrazine carboxamide] | 29.1% | 43% | 
CCN(c1nc(N)c(C(=O)N=C(N)N)nc1Cl)C(C)C [EIPA, 3-amino-5-(N-ethyl-N--isopropylamino)-6-chloro-N-(diaminomethylene)pyrazinecarboxamide] | 28.3% | 56% | 
NC(N)=NC(=O)c1nc(Br)cnc1N [Compound 6-Br-5-HA, 3-amino-6-bromo-N--(diaminomethylene)pyrazinecarboxamide] | 1% | 7.7% | 
NC(N)=NC(=O)c1nc(I)c(N)nc1N [Compound 6-IA, 3,5-diamino-6-iodo-N-(diaminomethylene)pyrazinecarboxamide] |  |  | % INHIBITION OF uPA ACTIVITY 20 mM INHIBITOR (human uPA; 20 mM INHIBITOR): 64.4%; % INHIBITION OF uPA ACTIVITY 100 mM INHIBITOR (human uPA; 100 mM INHIBITOR): 83.9%
NC(N)=NC(=O)c1ncc(N)nc1N [Compound 6-HA, 3,5-diamino-N-(diaminomethylene)pyrazinecarboxamide] | 15.3% | 38.2% | 
NC(N)=NC(=O)c1nccnc1N [5,6-HA, 3-amino-N-(diaminomethylene)pyrazinecarboxamide] | 2.1% | 11.1% | 
NC(N)=NC(=O)c1nc(Cl)c(N2CCCCCC2)nc1N [HMA, 3-amino-5-(1-homopiperidinyl)-6--chloro-N-(diaminomethylene)pyrazinecarboxamide] | 51.1% | 77% | 
N=C(N)NC(=O)c1nc(Cl)c(N)nc1N [Amiloride, 3,5-diamino-6-chloro-N--(diaminomethylene)pyrazinecarboxamide] |  |  | inhibition of neovascularization (Corneal Vessels; amiloride-HCl·2H₂O agarose pellets in rabbit cornea): inhibited neovascularization in a dose dependent manner; reversal of neovascularization already produced (Corneal Vessels): reverse a portion of the neovascularization that had already been produced; inhibition of tissue-type plasminogen activator (tPA) [1]: does not inhibit; inhibition of plasmin (plasmin): does not inhibit; inhibition of plasma kallikrein (plasma kallikrein): does not inhibit; inhibition of thrombin (thrombin): does not inhibit; inhibition of metastasis into the lung (circulating cancer cells): inhibited the metastasis of circulating cancer cells into the lung of the rat
CN(C)c1nc(N)c(C(=O)N=C(N)N)nc1I [IDMA, 3-amino-5-(N,N-dimethylamino)-6-iodo-N--(diaminomethylene)pyrazinecarboxamide] | 40.3% | 73.1% | 
CN(C)c1nc(N)c(C(=O)N=C(N)N)nc1Cl [DMA, 3-amino-5-dimethylamino-6-chloro-N--(diaminomethylene)pyrazinecarboxamide] | 41.1% | 48.3% | 
CC(C)CN(C)c1nc(N)c(C(=O)N=C(N)N)nc1Cl [MIBA, 3-amino--5-(N-methyl-N-isobutylamino)-6-chloro-N-(diaminomethylene)pyrazinecarboxamide] | 18.7% | 57.3% | 

The next lines start with results.

inhibition at 20 µM (human uPA) | inhibition at 100 µM (human uPA) | SMILES | other results
7.1% | 27.9% | NC(N)=NC(=O)c1nc(F)c(N)nc1N [Compound 6-FA, 3,5-diamino-6-fluoro-N-(diaminomethylene)pyrazinecarboxamide] | 
1.9% | 7.3% | NC(N)=NNC(=O)c1nc(Cl)c(N)nc1N [MK-875, 3,5-diamino-6-chloro-N²--(diaminomethylene)pyrazinecarbonyl hydrazide] | 
41.7% | 63.4% | Cc1ccc(CNC(=N)NC(=O)c2nc(Cl)c(NCc3ccc(Cl)cc3)nc2N)c(C)c1 [CBDMB, 3-amino-5-(N-4-chlorobenzylamino)-6-chloro-N-[(2,4-dimethylbenzyl)aminoaminomethylene]pyrazinecarboxamide] | 
1.2% | 7.7% | NC(=NCc1ccccc1)NC(=O)c1nc(Cl)c(N)nc1N [BENZAMIL, 3,5-diamino-6--chloro-N-(benzylaminoaminomethylene)pyrazinecarboxamide] | 
5% | 20.7% | NC(N)=NC(=O)c1nc(Cl)c(Cl)nc1N [Compound 5-ClA, 3--amino-5,6-dichloro-N-(diaminomethylene)pyrazinecarboxamide] | 
65.6% | 69.9% | NC(N)=NC(=O)c1nc(Br)c(N)nc1N [Compound 6-BrA, 3,5-diamino-6-bromo-N-(diaminomethylene)pyrazinecarboxamide] | 
1.7% | 5.5% | NC(=Nc1ccccc1)NC(=O)c1nc(Cl)c(N)nc1N [PHENAMIL, 3,5-diamino-6-chloro-N--(phenylaminoaminomethylene)pyrazinecarboxamide] | 
